One data set concerns HEK 293 cells. The data set is described as follows: Firefly Luciferase Assay for mRNA Delivery Efficiency / transfection in vitro. It counts as cell-based. Also on record: key: +: successfully transfected HEK 293 cells in vitro; −: not active. The source says: FIG. 32 illustrates luciferase reported expression in vitro and in vivo.
In certain embodiments, the invention encompasses a new class of ionizable lipids (the Ionizable Lipids of the Invention) synthesized bearing two ionizable amines and two degradable ester linkers to linoleic acid tails or branched tails. DL=DiLinoleic Acid, ADDE=Azane Diyl DiEthyl, Cx/Cy=carbon spacers, DMA=DiMethylAmine, Pyr=Pyridine, PipZ=PiperaZine, PipD=PiperiDine, DIPA=DiIsopropylamine, DM=DiMethyl, BOD=BisOctylDecyl.
Summary: LNPs were formulated using total lipid concentration of 50 mM comprised of ionizable lipids/DSPC/Cholesterol/PEG-DMG (50:10:38.5:1.5 mol %). Each one of the lipids were solubilized in ethanol until a clear solution was observed. The four lipids were combined to get 50 mM total lipid concentration (25/5/19.25/0.75 mM respectively) and serial dilutions to get 27.74 mM. […] Purified mRNA was ethanol precipitated, washed and resuspended in nuclease-free water to reach a concentration of 1 mg/ml. […] 16 μl Lipid Mix and 32 μl mRNA solution were mixed on Setting 3 and ejected into 48 μl 1×DPBS pH 7.4. The formed LNPS were then diluted into an additional 96 μl 1×DPBS pH 7.4. LNPs were then dialyzed against 1×DPBS pH 7.4 for 6×1 hr. LNPs were then diluted so that 32 ul contained 200 ng and 12K HEK293 cells were transfected with the same […]. • A: Firefly Luciferase Assay for mRNA Delivery Efficiency. After 24 hours of transfection, transfected cells were conditioned to room temperature for 30 minutes prior to the Firefly Luciferase Assay. Quantilum Recombinant Luciferase standard curve was prepared in 10% EMEM in 5-fold serial dilutions. 50 ul of each standard point from the range of 3.9×10^−5 mg/ml to 4.88×10^−3 mg/ml were included in the microplate as a positive enzyme activity control (data not shown) to maintain a linearity of 10^7 RLU/mg/ml. The ONE-Glo substrate, previously conditioned to room temperature for at least 4 hours, was added to each untransfected, transfected and Quantilum wells in a ratio 1:1. Assay plates were incubated for 3 minutes in darkness and immediately introduced into the Cytation 5 Cell Imaging Multi-Mode Reader (Biotek) to read luminescence. The results are illustrated in FIG. 7. • B: Ribogreen Assay for mRNA Encapsulation Efficiency. 1×TE Buffer and Triton Buffer (2% v/v in 1×TE Buffer) were added in duplicates into a black microplate per LNP. LNPs were diluted to 4 ng/ul in 1×DPBS pH 7.4 and added to each TE/Triton well in a ratio 1:1. Two standard curves were included in the Ribogreen Assay, one containing mRNA and 1×TE Buffer and other containing mRNA and Triton Buffer. Each one of these standard curves were used to calculate the mRNA concentration in each TE Buffer or Triton Buffer. This approach using two standard curves is more accurate for calculating the encapsulation efficiency and mRNA concentrations, in comparison to a single standard curve. Standards were included in the microplate after diluted LNPs were added to the plate. Microplates were incubated at 37° C. for 10 minutes to extract LNPs with Triton. Ribogreen reagent was diluted 1:100 in 1×TE Buffer and added to each well in a ratio 1:1. Microplates were immediately introduced into the Cytation 5 Cell Imaging Multi-Mode Reader (Biotek) to read Fluorescence (Ex485/Em528). The results are illustrated in FIG. 8. • C: Dynamic Light Scattering for LNP Size (red dots are PDI right y axis). LNPs were diluted to 6.25 ng/ul in 1×DPBS pH 7.4 and transferred into a quartz cuvette (ZEN2112) to measure size by Dynamic Light Scattering (DLS) in the Zetasizer Nano ZS (Malvern Panalytical) using particle RI of 1.45 and Absorption of 0.001 in 1×PBS at 25° C. with viscosity of 1.02 cP and RI of 1.335.

Data set [1] is classed as physicochemical. The settings on record: Table 11a. On the procedure:
In certain embodiments, the pKa of the Ionizable Lipids of the Invention included in the LNP is measured by fluorescent enhancement of an anionic lipophilic dye TNS binding to the LNP containing the ionizable lipid. Prior studies have shown that the TNS pKa needs to be near 6.5 for efficient delivery to liver upon IV administration. The pKa in the aqueous phase can be predicted by software such ACDLabs Percepta, resulting in pKas that are higher than the TNS pKa. Given the importance of the LNP pKa in determining their efficiency, we developed new methods (zeta potential, ^1H NMR, modeling) to link the intrinsic pKa of the ionizable lipid to LNP ionization properties, in order to rationally design effective systems for mRNA delivery.
In certain embodiments, the hydrophilic DMG-PEG forms the shell of the LNP. The amount of nucleic acid is represented by the NP mole ratio of the amine on the ionizable lipid to the phosphate groups on the nucleic acid backbone and is typically 3-6. In certain embodiments, the pKa of the LNP to be in the 6-7 range corresponding to the pH in the early endosome. […] The pKa of the LNP was measured using the pH-dependence of fluorescence enhancement of the anionic dye TNS. In certain embodiments, the pKa-dependent endosomal release mechanism was described as an ion-pairing event between the cationic protonated ionizable lipid and anionic endosomal phospholipids where a divergent cone-shape lipid tail of the ionizable lipid facilitates membrane rupture.

The mark [2] stands for this setting: Table 12, HEK 293 cells in vitro.

Molecules are shown by their SMILES.

As to `CCCCC/C=C\C/C=C\CCCCCCCCOC(=O)CCN(CCC(=O)OCCCCCCCC/C=C\C/C=C\CCCCC)CCN1CCN(C)CC1` (racemic) [DL-ADDE-C2/C2-4Me-PipZ], the “Transfection +/−” value in the data set on HEK 293 cells (setting [2]) is “+”.

Regarding `CCCCC/C=C\C/C=C\CCCCCCCCOC(=O)CCN(CCNC(=O)OC(C)(C)C)CCC(=O)OCCCCCCCC/C=C\C/C=C\CCCCC` (racemic) [DL-ADDE-C2/C2-BocA], the “Transfection +/−” value in the data set with HEK 293 cells (setting [2]) was “−”.

With `CCCCC/C=C\C/C=C\CCCCCCCCOC(=O)CCN(CCC(=O)OCCCCCCCC/C=C\C/C=C\CCCCC)CCN(C(C)C)C(C)C` (racemic) [DL-ADDE-C2/C2-DIPA], the “Transfection +/−” value in the data set with HEK 293 cells (setting [2]) is “−”.

Consider `CCCCC/C=C\C/C=C\CCCCCCCCOC(=O)CCN(CCC(=O)OCCCCCCCC/C=C\C/C=C\CCCCC)CCN(C)C` (racemic) [DL-ADDE-C2/C2-DMA], for which, in the data set with HEK 293 cells (setting [2]), the “Transfection +/−” value was “+”.

For `CCCCC/C=C\C/C=C\CCCCCCCCOC(=O)CCN(CCN)CCC(=O)OCCCCCCCC/C=C\C/C=C\CCCCC` (racemic) [DL-ADDE-C2/C2-DeBocA], the “Transfection +/−” value with HEK 293 cells (setting [2]) was “−”.

On to `CCCCC/C=C\C/C=C\CCCCCCCCOC(=O)CCN(CCC(=O)OCCCCCCCC/C=C\C/C=C\CCCCC)CCN1CCCCC1` (racemic) [DL-ADDE-C2/C2-PipD], for which the “Transfection +/−” value in the data set on HEK 293 cells (setting [2]) is given as “+”.

`CCCCC/C=C\C/C=C\CCCCCCCCOC(=O)CCN(CCCN1CCN(C)CC1)CCC(=O)OCCCCCCCC/C=C\C/C=C\CCCCC` (racemic) [DL-ADDE-C2/C3-4Me-PipZ]: in the data set on HEK 293 cells (setting [2]), the “Transfection +/−” value was “+”.

For the compound `CCCCC/C=C\C/C=C\CCCCCCCCOC(=O)CCN(CCC(=O)OCCCCCCCC/C=C\C/C=C\CCCCC)CC(C)(C)CN(C)C` (racemic) [DL-ADDE-C2/C3-DM-DMA], the “Transfection +/−” value in the data set on HEK 293 cells (setting [2]) is “−”.

Take `CCCCC/C=C\C/C=C\CCCCCCCCOC(=O)CCN(CCCN(C)C)CCC(=O)OCCCCCCCC/C=C\C/C=C\CCCCC` (racemic) [DL-ADDE-C2/C3-DMA]: the “Transfection +/−” value in the data set with HEK 293 cells (setting [2]) is “+”.

For the compound `CCCCC/C=C\C/C=C\CCCCCCCCOC(=O)CCN(CCCN1CCCC1)CCC(=O)OCCCCCCCC/C=C\C/C=C\CCCCC` (racemic) [DL-ADDE-C2/C3-Pyr], the “Transfection +/−” value in the data set on HEK 293 cells (setting [2]) is “+”.

With `CCCCC/C=C\C/C=C\CCCCCCCCOC(=O)CCN(CCCCN1CCN(C)CC1)CCC(=O)OCCCCCCCC/C=C\C/C=C\CCCCC` (racemic) [DL-ADDE-C2/C4-4Me-PipZ], the “Transfection +/−” value in the data set on HEK 293 cells (setting [2]) is “+”.

Turning to `CCCCC/C=C\C/C=C\CCCCCCCCOC(=O)CCN(CCCCN(C)C)CCC(=O)OCCCCCCCC/C=C\C/C=C\CCCCC` (racemic) [DL-ADDE-C2/C4-DMA], the “Transfection +/−” value in the data set with HEK 293 cells (setting [2]) is recorded as “+”.

On to `CCCCC/C=C\C/C=C\CCCCCCCCOC(=O)CCCCN(CCCCC(=O)OCCCCCCCC/C=C\C/C=C\CCCCC)CCCCN1CCN(C)CC1` (racemic) [DL-ADDE-C4/C4-4Me-PipZ], for which the “Transfection +/−” value in the data set on HEK 293 cells (setting [2]) is reported as “+”.

As to `CCCCC/C=C\C/C=C\CCCCCCCCOC(=O)CCCCN(CCCCC(=O)OCCCCCCCC/C=C\C/C=C\CCCCC)CCCCN(C)C` (racemic) [DL-ADDE-C4/C4-DMA], the “Transfection +/−” value in the data set with HEK 293 cells (setting [2]) is on record as “+”.

In the case of `CCCCC/C=C\C/C=C\CCCCCCCCOC(=O)CCCCN(CCCCC(=O)OCCCCCCCC/C=C\C/C=C\CCCCC)CCCCN1CCCCC1` (racemic) [DL-ADDE-C4/C4-PipD], in the data set on HEK 293 cells (setting [2]), the “Transfection +/−” value is “+”.

Take `CCCCC/C=C\C/C=C\CCCCCCCCOC(=O)CCN(CCO)CCC(=O)OCCCCCCCC/C=C\C/C=C\CCCCC` (racemic) [DL-ADDE-EA]: in the data set with HEK 293 cells (Table 13A), the “Transfection +/−” value is “−”.

Regarding `CCCCC/C=C\C/C=C\CCCCCCCCOC(=O)CCN(CCC(=O)OCCCCCCCC/C=C\C/C=C\CCCCC)CCC(C)C` (racemic) [DL-ADDE-IP], the “Transfection +/−” value with HEK 293 cells (Table 13A) is given as “−”.

For `CCCCC/C=C\C/C=C\CCCCCCCCOC(=O)CCN(CCCO)CCC(=O)OCCCCCCCC/C=C\C/C=C\CCCCC` (racemic) [DL-ADDE-PA], in the data set with HEK 293 cells (Table 13A), the “Transfection +/−” value is listed as “−”.

Regarding `CCCCCCCC(=O)N(CCCN(C)C)C(CCCCCCCCC(=O)OC(CCCCCC)CCCCCC)CCCCCCCCC(=O)OC(CCCCCC)CCCCCC` [Acuitas Compound 10], in data set [1], the “ΔpKa = Classic-Galas” value is on record as 3.04 and the “ΔpKa = Classic-TNS” value is 3.24.

Consider `CCCCCCCCCCC(CCCCCCCC)COC(=O)CCN(CCCCN1CCN(C)CC1)CCC(=O)OCC(CCCCCCCC)CCCCCCCCCC` (stereo not shown) [BOD-ADDE-C2/C4-4-Me-PipZ], for which the “Transfection +/−” value with HEK 293 cells (setting [2]) was “+”.

`CCCCCCCCCCC(CCCCCCCC)COC(=O)CCN(CCC(=O)OCC(CCCCCCCC)CCCCCCCCCC)CCN1CCN(C)CC1` (stereo not shown) [BODD-ADDE-C2/C2-4Me-PipZ]: in the data set with HEK 293 cells (setting [2]), the “Transfection +/−” value was “+”.

On to `CCCCC/C=C\C/C=C\CCCCCCCCOCC(CN(C)C)OCCCCCCCC/C=C\C/C=C\CCCCC` (stereo not shown) [DLinDMA, 1,2-dilinoleyloxy-N,N-dimethylaminopropane], for which, in data set [1], the “ΔpKa = Classic-Galas” value is on record as 1.6 and the “ΔpKa = Classic-TNS” value stood at 1.8.

Turning to `CCCCC/C=C\C/C=C\CCCCCCCCC1(CCCCCCCC/C=C\C/C=C\CCCCC)OCC(CCN(C)C)O1` (stereo not shown) [KC2], in data set [1], the “ΔpKa = Classic-Galas” value came out at 2.32 and the “ΔpKa = Classic-TNS” value is on record as 2.62.

For `CCCCC/C=C\C/C=C\CCCCCCCC(=O)NCCSSCCN` [L-Amide-AEDS], in the data set with HEK 293 cells (Table 13C), the “Transfection +/−” value was “−”.

With `CCCCC/C=C\C/C=C\CCCCCCCC(=O)NCCN` [L-Amide-AE], in the data set on HEK 293 cells (Table 13C), the “Transfection +/−” value is “−”.

Consider `CCCCC/C=C\C/C=C\CCCCCCCC(=O)NCCN(C)C` [L-Amide-DMA], for which the “Transfection +/−” value in the data set with HEK 293 cells (Table 13C) is on record as “−”.

`CCCCCCCCCOC(=O)CCCCCCCN(CCO)CCCCCCCC(=O)OC(CCCCCCCC)CCCCCCCC` [Moderna Lipid 5]: in data set [1], the “ΔpKa = Classic-Galas” value came out at 3.34 and the “ΔpKa = Classic-TNS” value is 2.34.
